Experimental data taken from patent publication US20180015072A1, “Tryptophan is a pro-drug for infectious diseases and cancers” (priority 2016, published 2018).

Columns and labels:
[1] = system: hepatitis C virus; type: cell-based
[2] = system: pancreatic cancer Mia PaCa2 cell; type: cell-based
[3] = system: vaccinia virus; type: cell-based
[4] = system: hepatitis B; type: cell-based
[5] = system: nun small cell lung cancer mice model; test: nun small cell lung cancer mice model; type: in vivo; conditions: 80 mg/kg/day, China Tongi medical university
[6] = system: chikungunya viruses; type: cell-based
[7] = system: tacaribe virus; type: cell-based
[8] = system: dengue viruses; type: cell-based
[9] = system: Venezuelan equine encephalitis viruses; type: cell-based
[10] = system: Herpes simplex virus 1; type: cell-based
[11] = system: hand foot mouth disease mice model; test: hand foot mouth disease mice model; type: in vivo; conditions: 320 mg/kg/day, China food and drug inspection Ins.
[12] = system: influenza A H1N1 viruses; type: cell-based
[13] = system: poliovirus; type: cell-based
[14] = system: respiratory syncytial viruses; type: cell-based
[15] = system: yellow fever virus; type: cell-based
[16] = system: human cytomegalovirus; type: cell-based
[17] = system: MERS coronavirus; type: cell-based
[18] = system: rift valley fever virus; type: cell-based
[19] = system: human primary white cells

| Structure (SMILES) | inhibition of hepatitis C virus [1] | inhibition of Mia PaCa2 cell growth [2] | inhibition of vaccinia virus [3] | function against hepatitis B [4] | prevention and early stage treatment function in lung cancer mice model [5] | inhibition of chikungunya viruses [6] | inhibition of tacaribe virus [7] | inhibition of dengue viruses [8] | inhibition of Venezuelan equine encephalitis viruses [9] | inhibition of Herpes simplex virus 1 [10] | function in hand foot mouth disease mice model [11] | inhibition of influenza A H1N1 viruses [12] | inhibition of poliovirus [13] | inhibition of respiratory syncytial viruses [14] | inhibition of yellow fever virus [15] | inhibition of human cytomegalovirus [16] | inhibition of MERS coronavirus [17] | inhibition of rift valley fever virus [18] | safety for human primary white cells [19] |
| --- | --- | --- | --- | --- | --- | --- | --- | --- | --- | --- | --- | --- | --- | --- | --- | --- | --- | --- | --- |
| OC[C@H]1O[C@@H](Oc2c[nH]c3ccccc23)[C@H](O)[C@@H](O)[C@@H]1O [Indican] | inhibits | inhibit | inhibit | does not show function | significant prevention and early stage treatment function | inhibits | inhibit | inhibits | inhibits | inhibit | significant function | inhibits | inhibit | inhibits | inhibits | inhibit | inhibits | inhibit |  |
| N[C@@H](Cc1c[nH]c2ccccc12)C(=O)O [Tryptophan] |  | inhibit | inhibit |  | significant prevention and early stage treatment function |  | inhibit |  |  | inhibit | significant function |  | inhibit |  |  | inhibit |  | inhibit | safe |
